Measurements from patent publication US20180160684A1 (priority 2015, published 2018).
Where two headings read alike, the source gives them in different places.

Test system: tomato late blight
Type: in vivo, Phytophthora infestans

## COc1cc(C)c(C(=O)c2c(OC)ncc(Cl)c2C)c(OC)c1OC [Pyriofenone, pyriofenone]
Pyriofenone 12.5 ppm alone (valifenalate 0 ppm)
  Control value: 0
Pyriofenone 25 ppm alone (valifenalate 0 ppm)
  Control value: 0
Pyriofenone 50 ppm alone (valifenalate 0 ppm)
  Control value: 0
Pyriofenone 100 ppm alone (valifenalate 0 ppm)
  Control value: 0

## CC(C)(C)C(O)(CCc1ccc(Cl)cc1)Cn1cncn1 (stereo not drawn) [Tebuconazole, tebuconazole]
Tebuconazole 12.5 ppm alone (valifenalate 0 ppm)
  Control value: 4
Tebuconazole 25 ppm alone (valifenalate 0 ppm)
  Control value: 4
Tebuconazole 50 ppm alone (valifenalate 0 ppm)
  Control value: 4
Tebuconazole 100 ppm alone (valifenalate 0 ppm)
  Control value: 8

## COC(=O)CC(NC(=O)[C@@H](NC(=O)OC(C)C)C(C)C)c1ccc(Cl)cc1 (stereo partly drawn) [Valifenalate, valifenalate]
Valifenalate 1.2 ppm alone (difenoconazole 0 ppm), Table 4
  Control value: 46
Valifenalate 1.2 ppm alone (isofetamid 0 ppm), Table 1
  Control value: 29
Valifenalate 1.2 ppm alone (pyriofenone 0 ppm), Table 2
  Control value: 13
Valifenalate 2.3 ppm alone (difenoconazole 0 ppm), Table 4
  Control value: 54
Valifenalate 2.3 ppm alone (isofetamid 0 ppm), Table 1
  Control value: 42
Valifenalate 2.3 ppm alone (pyriofenone 0 ppm), Table 2
  Control value: 25
Valifenalate 2.3 ppm alone (tebuconazole 0 ppm), Table 3
  Control value: 33
Valifenalate 4.7 ppm alone (difenoconazole 0 ppm), Table 4
  Control value: 58
Valifenalate 4.7 ppm alone (isofetamid 0 ppm), Table 1
  Control value: 54
Valifenalate 4.7 ppm alone (pyriofenone 0 ppm), Table 2
  Control value: 50
Valifenalate 4.7 ppm alone (tebuconazole 0 ppm), Table 3
  Control value: 46
Valifenalate 9.4 ppm alone (difenoconazole 0 ppm), Table 4
  Control value: 75
Valifenalate 9.4 ppm alone (isofetamid 0 ppm), Table 1
  Control value: 71
Valifenalate 9.4 ppm alone (pyriofenone 0 ppm), Table 2
  Control value: 63
Valifenalate 9.4 ppm alone (tebuconazole 0 ppm), Table 3
  Control value: 63
Valifenalate 18.8 ppm alone (isofetamid 0 ppm), Table 1
  Control value: 75
Valifenalate 18.8 ppm alone (pyriofenone 0 ppm), Table 2
  Control value: 79
Valifenalate 18.8 ppm alone (tebuconazole 0 ppm), Table 3
  Control value: 67
Valifenalate 37.5 ppm alone (tebuconazole 0 ppm), Table 3
  Control value: 72

## CC1COC(Cn2cncn2)(c2ccc(Oc3ccc(Cl)cc3)cc2Cl)O1 (stereo not drawn) [Difenoconazole, difenoconazole]
Difenoconazole 12.5 ppm alone (valifenalate 0 ppm)
  Control value: 13
Difenoconazole 25 ppm alone (valifenalate 0 ppm)
  Control value: 13
Difenoconazole 50 ppm alone (valifenalate 0 ppm)
  Control value: 21
Difenoconazole 100 ppm alone (valifenalate 0 ppm)
  Control value: 25

## Cc1cc(OC(C)C)ccc1C(=O)C(C)(C)NC(=O)c1sccc1C [Isofetamid, isofetamid]
Isofetamid 18.8 ppm alone (valifenalate 0 ppm)
  Control value: 0
Isofetamid 37.5 ppm alone (valifenalate 0 ppm)
  Control value: 0
Isofetamid 75 ppm alone (valifenalate 0 ppm)
  Control value: 0
Isofetamid 150 ppm alone (valifenalate 0 ppm)
  Control value: 4
Isofetamid 300 ppm alone (valifenalate 0 ppm)
  Control value: 8
